Test results: patent US20230027066A1 (Urovant Sciences GmbH, priority 2019, published 2023)

System: men and women with overactive bladder
Experiment: Phase 3 study of vibegron 75 mg vs placebo and tolterodine ER 4 mg, 12 weeks, efficacy (voiding and urine volume diary)
Assay type: in vivo, human
Settings: for Daily Urgency Episodes: Reduction from Baseline at Week 12, LS Mean: vibegron 75 mg, tolterodine ER 4 mg; for Patients with 100% Reduction in UUI from Baseline to Week 12, Unadjusted n (%) / Patients with at Least 75% Reduction in UUI from Baseline to Week 12, Unadjusted n (%) / Patients with 100% Reduction in UUI from Baseline to Week 12, Adjusted n (%) / Patients with at Least 75% Reduction in UUI from Baseline to Week 12, Adjusted n (%): FAS-I; for Patients with 100% Reduction in UUI from Baseline to Week 12, Adjusted n (%) / Patients with at Least 75% Reduction in UUI from Baseline to Week 12, Adjusted n (%): MI for missing values; for 75% UUI responders, Active-Placebo CMH Difference / 100% UUI responders, Active-Placebo CMH Difference: stratified by sex; for Urgency, Change from Baseline LS Mean / Urgency, LS Mean Difference active - Placebo: baseline to Week 12
Method: Enrollment of patients included individuals with OAB Wet (those with UUI, the involuntary loss of urine accompanied by urgency) and OAB Dry (those without UUI). A total of 1,518 patients were randomized across 215 study sites into one of three groups for a 12-week treatment period.
The study consisted of a Screening Period (1 to 5 weeks), a single-blind Run-in Period (2 weeks), a randomized double-blind Treatment Period (12 weeks), and a Follow-up Period (4 weeks).
Tolterodine ER 4 mg was the active control. […] Between the Baseline and Week 12 Visits, patients had study assessments at Week 4 and Week 8.
The Patient Voiding Diary was used by participants (via the eDiary or paper Diary) to record the frequency of daily OAB symptoms including all micturitions, urgency, incontinence, and main reason for incontinence by selecting the respective box for each symptom occurring during the course of a given day and night.
Urine volume data were collected separately by patients using the Urine Volume component of the eDiary, or the paper Urine Volume Chart. The Urine Volume Chart is a tool used in clinical practice and clinical investigation to assess voiding functions over a 24-hour period and is regarded as a useful instrument in the investigation of patients with voiding symptoms. Urine volume may be collected during any one (1) of the 7 Diary Days prior to the visit, and it should be recorded for ˜24 hours starting from the time the patient gets up for the day and continues until the time the patient gets up for the day on the next day.
For the purpose of this study, the number of micturitions was defined as the number of times a patient has voided in the toilet as indicated on the Patient Voiding Diary. Average daily micturitions were calculated using the daily entries in the Patient Voiding Diary, which was completed over the 7 days prior to each study visit. Average daily number of micturitions were calculated as the total number of micturitions that occurred on a Complete Diary Day divided by the number of Complete Diary Days in the Patient Voiding Diary. A complete diary day required confirmation by the patient in the Patient Voiding Diary that all voids and leakages had been recorded for the diary day. Baseline was defined as the average number of micturitions occurring during the last evaluable diary prior to the Baseline Visit.
The number of UUI episodes was defined as the number of times a patient had checked “urge” as the reason for accidental urine leakage. Average daily UUI episodes at each study visit were calculated in the same manner as described above for the micturition endpoint. The UUI endpoint were analyzed using only OAB Wet patients.
For the analysis of the co-primary endpoints (change from baseline in average number of daily micturitions at Week 12 and change from baseline in average number of daily urge urinary incontinence episodes at Week 12, and placebo adjustment of each), a mixed model for repeated measure (MMRM) with restricted maximum likelihood estimation was used. This model corrects for dropout and accounts for the fact that measurements taken on the same patient over time tend to be correlated by using all available information on patients within the same covariate set to derive an estimate of the treatment effect for a dropout-free population. The analysis model for each efficacy endpoint includes terms for treatment, visit, OAB Type (Wet vs Dry), Sex (Female vs Male), Region (US vs Rest of World), baseline score, and interaction of visit by treatment.
Primary inferences were drawn from treatment differences for the changes from baseline derived from the MMRM models at Week 12. As part of secondary objectives, the treatment differences for each post baseline visit were also derived using the same MMRM model. […]

[1] = 50% Total Incontinence Responders, Week 2
[2] = 50% Total Incontinence Responders, Week 4
[3] = 50% Total Incontinence Responders, Week 8
[4] = 50% Total Incontinence Responders, Week 12
[5] = Cox model with sex as covariate, >1 = more treated subjects attain reduction
[6] = Dry population, baseline to Week 2

## Cc1ccc(O)c([C@H](CCN(C(C)C)C(C)C)c2ccccc2)c1 [Tolterodine ER, tolterodine, reference compound]
[1]
  Average Volume Voided per Micturition, Mean (SD): 167.1 (75.27)
  Average daily number of urgency episodes, Mean (SD): 5.68 (3.690)
  Change from Baseline in Average Daily Number of Urgency Episodes, LS Mean (SE): −2.1 (0.17)
  Change from Baseline in Average Volume Voided per Micturition, LS Mean: 16.9 (4.12)
  Change from baseline in Percent Dry Diary Days, LS Mean: 23.9 (2.33) Percent
  Percent Dry Diary Days, Mean (SD): 28.44 (35.758) Percent
[2]
  Average Volume Voided per Micturition, Mean (SD): 171.3 (73.88)
  Average daily number of urgency episodes, Mean (SD): 5.18 (3.663)
  Change from Baseline in Average Daily Number of Urgency Episodes, LS Mean (SE): −2.6 (0.18)
  Change from Baseline in Average Volume Voided per Micturition, LS Mean: 16.3 (4.38)
  Change from baseline in Percent Dry Diary Days, LS Mean: 32.6 (2.69) Percent
  Percent Dry Diary Days, Mean (SD): 36.82 (40.267) Percent
[3]
  Average Volume Voided per Micturition, Mean (SD): 177.7 (76.78)
  Average daily number of urgency episodes, Mean (SD): 4.68 (3.707)
  Change from Baseline in Average Daily Number of Urgency Episodes, LS Mean (SE): −3.1 (0.21)
  Change from Baseline in Average Volume Voided per Micturition, LS Mean: 24.8 (4.56)
  Change from baseline in Percent Dry Diary Days, LS Mean: 40.0 (2.76) Percent
  Percent Dry Diary Days, Mean (SD): 44.86 (40.529) Percent
[4]
  Average Volume Voided per Micturition, Mean (SD): 175.4 (77.58)
  Average daily number of urgency episodes, Mean (SD): 4.02 (3.539)
  Change from Baseline in Average Daily Number of Urgency Episodes, LS Mean (SE): −3.6 (0.22)
  Change from Baseline in Average Volume Voided per Micturition, LS Mean: 21.1 (4.74)
  Change from baseline in Percent Dry Diary Days, LS Mean: 49.7 (2.68) Percent
  Percent Dry Diary Days, Mean (SD): 55.43 (37.734) Percent
75% UUI Responders, Week 2
  Average Volume Voided per Micturition, Mean (SD): 170.6 (77.20)
  Average daily number of urgency episodes, Mean (SD): 5.37 (3.577)
  Change from Baseline in Average Volume Voided per Micturition, LS Mean: 17.5 (4.96)
  Change from baseline in average daily number of urgency episodes, LS Mean: −2.3 (0.21)
75% UUI Responders, Week 4
  Average Volume Voided per Micturition, Mean (SD): 174.8 (73.04)
  Average daily number of urgency episodes, Mean (SD): 4.93 (3.675)
  Change from Baseline in Average Volume Voided per Micturition, LS Mean: 16.2 (5.27)
  Change from baseline in average daily number of urgency episodes, LS Mean: −2.8 (0.23)
75% UUI Responders, Week 8
  Average Volume Voided per Micturition, Mean (SD): 182.1 (77.27)
  Average daily number of urgency episodes, Mean (SD): 4.42 (3.677)
  Change from Baseline in Average Volume Voided per Micturition, LS Mean: 26.1 (5.51)
  Change from baseline in average daily number of urgency episodes, LS Mean: −3.3 (0.25)
75% UUI Responders, Week 12
  Average Volume Voided per Micturition, Mean (SD): 177.3 (77.70)
  Average daily number of urgency episodes, Mean (SD): 3.67 (3.542)
  Change from Baseline in Average Volume Voided per Micturition, LS Mean: 19.1 (5.83)
  Change from baseline in average daily number of urgency episodes, LS Mean: −3.9 (0.27)
Age ≥65 years
  Daily Urgency Episodes: Reduction from Baseline at Week 12, LS Mean: −2.1
Age ≥75 years
  Daily Urgency Episodes: Reduction from Baseline at Week 12, LS Mean: −2.4
All patients
  Daily Urgency Episodes: Reduction from Baseline at Week 12, LS Mean: −2.5
Baseline Number of UUI <3
  Patients with 100% Reduction in UUI from Baseline to Week 12, Unadjusted n (%): 62 (33.2) n (%)
  Patients with at Least 75% Reduction in UUI from Baseline to Week 12, Unadjusted n (%): 98 (52.4) n (%)
  Patients with 100% Reduction in UUI from Baseline to Week 12, Adjusted n (%): 54 (29.0) n (%)
  Patients with at Least 75% Reduction in UUI from Baseline to Week 12, Adjusted n (%): 91 (48.4) n (%)
  75% UUI responders, Active-Placebo CMH Difference: 10.1
  100% UUI responders, Active-Placebo CMH Difference: 1.5
Baseline Number of UUI ≥3
  Patients with 100% Reduction in UUI from Baseline to Week 12, Unadjusted n (%): 23 (17.4) n (%)
  Patients with at Least 75% Reduction in UUI from Baseline to Week 12, Unadjusted n (%): 54 (40.9) n (%)
  Patients with 100% Reduction in UUI from Baseline to Week 12, Adjusted n (%): 13 (9.6) n (%)
  Patients with at Least 75% Reduction in UUI from Baseline to Week 12, Adjusted n (%): 44 (33.7) n (%)
  75% UUI responders, Active-Placebo CMH Difference: 8.4
  100% UUI responders, Active-Placebo CMH Difference: 2.6
[5]
  Hazard Ratio, 50% reduction in urgency episodes, Compared to Placebo Using Proportional Hazards: 1.225
  Hazard Ratio, 100% reduction in UUI episodes, Compared to Placebo Using Proportional Hazards: 1.141
Dry population, Age <65
  Urgency, Change from Baseline LS Mean: −2.3 (57)
  Urgency, LS Mean Difference active - Placebo: −0.8
Dry population, Age ≥65
  Urgency, Change from Baseline LS Mean: −1.5 (35)
  Urgency, LS Mean Difference active - Placebo: 0.2
Dry population, Week 2
  Average daily number of urgency episodes, Mean (SD): 6.87 (4.260)
  Change from baseline in average daily number of urgency episodes, LS Mean: −1.4 (0.27)
  Urgency episodes, Active - Placebo LS Mean Difference: −0.6 (0.37)
Dry population, Week 4
  Average daily number of urgency episodes, Mean (SD): 7.03 (4.865)
  Change from baseline in average daily number of urgency episodes, LS Mean: −1.6 (0.29)
  Urgency episodes, Active - Placebo LS Mean Difference: −0.7 (0.40)
Dry population, Week 8
  Average daily number of urgency episodes, Mean (SD): 6.25 (4.957)
  Change from baseline in average daily number of urgency episodes, LS Mean: −2.2 (0.34)
  Urgency episodes, Active - Placebo LS Mean Difference: −1.0 (0.46)
Dry population, Week 12
  Average daily number of urgency episodes, Mean (SD): 6.56 (5.480)
  Change from baseline in average daily number of urgency episodes, LS Mean: −2.0 (0.36)
  Urgency episodes, Active - Placebo LS Mean Difference: −0.4 (0.49)
[6]
  Patients with at Least 50% Reduction in Urgency Episodes, Adjusted (%): 16.3%
  Patients with at Least 50% Reduction in Urgency Episodes, Adjusted n: 16
  Patients with at Least 50% Reduction in Urgency Episodes, Unadjusted (%): 16.3%
  Patients with at Least 50% Reduction in Urgency Episodes, Unadjusted n: 16
